Experimental data published in patent US9918981B2, “Liquid buprenorphine formulations” (Insys Development Company, Inc., priority 2013, dated 2018).

Experiment: Bioavailability of buprenorphine sublingual spray vs Buprenex intramuscular and intravenous injection, crossover study
Details: for AUC(0-t) / AUC(inf) / Cmax / Tmax / t½ / λz: overnight fast
[1] = Intramuscular 0.3 mg (Buprenex injection)
[2] = Intravenous 0.3 mg (Buprenex bolus injection)
[3] = after sublingual administration (1 mg spray)

From the text: This was an open-label, 3-treatment, 3-period, 6-sequence, single-dose, randomized crossover study. Eighteen healthy male and female volunteers were randomly assigned to 1 of 6 treatment sequences. Dosing occurred after an overnight fast and there was a minimum 14-day washout between the dosing in two periods.

**Q.** For Buprenorphine, which “AUC(0-t)” value [1] is on record?
**A.** 4.97 ± 0.90 ng·h/mL

**Q.** What about the “AUC(inf)” value [1] of the same substance?
**A.** 5.50 ± 0.83 ng·h/mL

**Q.** And the Cmax [1]?
**A.** 1.73 ± 1.08 ng/mL

**Q.** And the Tmax [1]?
**A.** 0.17 h

**Q.** And the t½ [1]?
**A.** 12.0 ± 5.31 h

**Q.** What about the λz [1] of the same substance?
**A.** 0.0655 ± 0.0210

**Q.** And the “AUC(0-t)” value [2]?
**A.** 5.09 ± 1.01 ng·h/mL

**Q.** What about the “AUC(inf)” value [2] of the same substance?
**A.** 5.51 ± 1.21 ng·h/mL

**Q.** And the Cmax [2]?
**A.** 3.95 ± 3.66 ng/mL

**Q.** What about the Tmax [2] of the same substance?
**A.** 0.083 h

**Q.** What about the t½ [2] of the same substance?
**A.** 9.37 ± 6.49 h

**Q.** What about the λz [2] of the same substance?
**A.** 0.1028 ± 0.0641

**Q.** What about the “absolute bioavailability based on AUC(0-t)” value [3] of the same substance?
**A.** 41.03%

**Q.** And the “absolute bioavailability based on AUC(inf)” value [3]?
**A.** 42.57%
